Laboratory results taken from the supplement of paper PMC8633005.

How the values were obtained:
Assay in all cases: drug sensitivity score (DSS) (DSS (unitless, 0-50 scale)); higher = more sensitive (stronger viability inhibition); extreme values may be limits of the assay
Settings in all cases: 72 h; culture: 2D
FM-MEL-6 = tested on: FM-MEL-6
Summary of the method: (§1)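 A 527-compound oncology library was screened in 384-well plates against melanoma cell lines and patient-derived melanoma cultures grown in 2D, the cultures at 1000–1500 cells per well. Each compound, in DMSO or water, was applied at five concentrations over a 10,000-fold range and incubated for 72 h at 37 °C before CellTiter-Glo luminescence readout of viability. A drug sensitivity score, a modified area-under-curve measure, was calculated from curves fitted in the in-house Breeze software.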

Bowes = tested on: Bowes
Summary of the method: as §1

SK-MEL-2 = tested on: SK-MEL-2
Summary of the method: as §1

SK-MEL-28 = tested on: SK-MEL-28
Summary of the method: as §1

WM852 = tested on: WM852
Summary of the method: as §1

FM-MEL-2 = tested on: FM-MEL-2
Summary of the method: as §1

WM165 = tested on: WM165
Summary of the method: as §1

FM-MEL-3 = tested on: FM-MEL-3
Summary of the method: as §1

Structure (SMILES)	drug sensitivity score (FM-MEL-6)	drug sensitivity score (Bowes)	drug sensitivity score (SK-MEL-2)	drug sensitivity score (SK-MEL-28)	drug sensitivity score (WM852)	drug sensitivity score (FM-MEL-2)	drug sensitivity score (WM165)	drug sensitivity score (FM-MEL-3)
CCN(CC)CCN(Cc1ccc(-c2ccc(C(F)(F)F)cc2)cc1)C(=O)Cn1c(SCc2ccc(F)cc2)nc(=O)c2c1CCC2 [Darapladib]	0.4	0	0.2	0.4	0	0.8	0	0
Cn1cc(C[C@@H](N)C(=O)O)c2ccccc21 [1-methyl-D-tryptophan]	0.6	0	0	0	0	0	0	0
C[C@@H](Oc1cc(-n2cnc3ccc(CN4CCN(C)CC4)cc32)sc1C(N)=O)c1ccccc1C(F)(F)F	10	27.9	10.1	8.1	22.8	5	25.6	1.7
C=CC(=O)Nc1cccc(Nc2nc(Nc3ccc(N4CCN(C(C)=O)CC4)cc3OC)ncc2C(F)(F)F)c1 [Rociletinib]	3.4	7.7	2.9	1.1	3	6.6	7.2	7.9
CC[C@]1(O)C[C@@H]2CN(CCc3c([nH]c4ccccc34)[C@@](C(=O)OC)(c3cc4c(cc3OC)N(C)[C@H]3[C@@](O)(C(=O)OC)[C@H](OC(C)=O)[C@]5(CC)C=CCN6CC[C@]43[C@@H]65)C2)C1 [Vinblastine]	3.9	21.8	19.3	8.9	13.8	4.5	19.9	11.9
CN1CCN(c2ccc(C(=O)Nc3n[nH]c4ccc(Cc5cc(F)cc(F)c5)cc34)c(NC3CCOCC3)c2)CC1 [Entrectinib]	0	0	0	0	0	0	0	0
C[C@@H](Nc1cc(F)cc(F)c1)c1cc(C(=O)N(C)C)cc2c(=O)cc(N3CCOCC3)oc12 [AZD-8186]	2.2	2.6	0	3.7	0.8	2.4	0.4	0
Cc1cc(Nc2nc(N[C@@H](C)c3ncc(F)cn3)ncc2Cl)[nH]n1 [AZD1480]	0	0	0	0	0	0	0	0
CCNc1nc(Nc2cc(F)c(C(=O)N3CCOCC3)cc2OC)ncc1C(F)(F)F [GNE-7915]	0	0	0	0	0	0	0	2.6
Cn1ncnc1[C@H]1c2n[nH]c(=O)c3cc(F)cc(c23)N[C@@H]1c1ccc(F)cc1 [Talazoparib]	2.3	0	0	0.1	0	0.4	11.7	2.3
COc1cc2c(Nc3ccc(Cl)c(Cl)c3F)ncnc2cc1OC[C@@H]1C[C@@H]2CN(C)C[C@@H]2C1 [Tesevatinib]	0.3	1.8	0	0.1	0	0.1	0.1	0.8
